Measurements from patent publication US12691186B2, “B7-H3 miniproteins, conjugates, and uses thereof” (priority 2023, dated 2026).

Key:
[1] = test system: >6,500 different human proteins; test: Off-target binding, cell microarray platform (Retrogenix Assay) in HEK293 cells; settings: biotin-labeled molecules
Procedure: To evaluate potential off-target binding, eight biotin-labeled molecules were tested in a cell microarray platform (Charles River Lab, Retrogenix Assay) having >6,500 different human proteins spanning diverse functions and subcellular locations.
Initially, two pools of molecules were tested. Pool #1 consisted of C298, C300, C302, C304, and pool #2 consisted of C306, C308, C310, and C312 at 2 μg/mL for each molecule. To perform this assay, HEK293 cells were plated on a dish and localized spots of cells were transiently over-expressed with a cDNA encoding for one of the >6,500 targets. Included in this library were two isoforms of CD276 (B7-H3) and B7-H3 related proteins (B7-1, B7-2, B7-H1/PD-L1, and B7-H2). The molecule pools were incubated on the fixed, over-expressing cell microarrays (n=2 per protein), and binding was visualized using Alexa Fluor 647 streptavidin fluorescence. All transfection efficiencies exceeded minimum thresholds for the microarray expression targets. Preliminary interactions identified from pooled results were re-spotted in duplicates, and each of the eight compounds were tested individually (n=2) at 2 μg/mL and/or in dose response against these targets as described above to validate the interactions.
All positive control interactions were strong and passed quality control. Specific interactions observed (median SNR≥1) confirmed on-target B7-H3 binding in two different isoforms for each of the eight test molecules. These interactions with the primary target occurred after fixation and in live cells (absence of fixation). No significant additional interactions were confirmed for any test molecules outside of B7-H3, indicating high specificity for the primary target (data not shown).

[2] = In vitro metabolic stability, kidney brush border membrane preparations (KBBM); type: in vitro ADME; design: unit not given here; settings: mouse kidney brush border membrane preparation, 37° C.
Procedure: (§1) Exemplary miniprotein conjugates were spiked into biological matrices at initial concentration between 1-2 μM. Tested matrices were varied by species (mouse, rat, human) and type (plasma, serum, and kidney brush border membrane preparations tested each from 0.625-100 μg/mL protein content). Tested conditions were incubated with TAs at 37° C. for 4 hours. At collection points of 0, 15, 30, 60, 120, 240 minutes, 50 μL of each condition were quenched by organic solvent (methanol or acetonitrile) or the addition of 4% phosphoric acid solution. Fractions of each quenched timepoint were subsequently assayed for parent TA concentration by high resolution LC-MS. Percent-parent-remaining-time plots were constructed from the ratio of each given time collection to the time-zero parent TA. Percent-parent-remaining in mouse serum and plasma for exemplary miniproteins are recorded in Table 8.

[3] = In vitro metabolic stability, plasma; type: in vitro ADME; design: unit not given here; settings: 37° C.
Procedure: as §1

Compound | background binding to untransfected HEK293 cells [1] | In vitro Stability (mouse) - KBBM [2] | In vitro Stability (mouse) - Plasma [3]
CC[C@H](C)[C@@H]1NC(=O)[C@H](Cc2ccccc2)NC(=O)[C@H](C)NC(=O)[C@H](CCCCNC)NC(=O)[C@H]([C@@H](C)CC)NC(=O)[C@H](CCC(N)=O)NC(=O)[C@H](C)NC(=O)[C@H](Cc2ccc(O)cc2)NC(=O)[C@H]([C@@H](C)O)NC(=O)[C@H](CC(C)C)NC(=O)[C@@H]2CSSC[C@@H](C(=O)N[C@@H](CO)C(N)=O)NC(=O)[C@H](CC(C)C)NC(=O)[C@H](CCC(=O)O)NC(=O)[C@H](CCCCNC)NC(=O)[C@H](C)NC(=O)[C@H](CCC(=O)O)NC(=O)[C@H](CO)NC(=O)[C@H](CC(C)C)NC(=O)[C@H]([C@@H](C)CC)NC(=O)[C@H](CC(N)=O)NC(=O)[C@H](C)NC(=O)[C@H](CO)NC(=O)[C@H](CCC(N)=O)NC(=O)[C@H](CSSC[C@H](NC(=O)CCOCCOCCOCCOCCNC(=O)CCCC[C@@H]3SC[C@@H]4NC(=O)N[C@@H]43)C(=O)N[C@@H](C)C(=O)N[C@@H](CCCNC(=N)N)C(=O)N[C@@H](CCC(=O)O)C(=O)N[C@@H](CCCCN)C(=O)N[C@@H]([C@@H](C)CC)C(=O)N[C@@H](C)C(=O)N[C@@H](C)C(=O)N[C@@H](CC(C)C)C(=O)N[C@@H](CO)C(=O)N[C@@H](CCC(=O)O)C(=O)N[C@@H]([C@@H](C)CC)C(=O)N[C@@H]([C@@H](C)CC)C(=O)N[C@@H](Cc3c[nH]c4ccccc34)C(=O)N[C@@H](CC(C)C)C(=O)N3CCC[C@H]3C(=O)N2)NC(=O)[C@@H]2CCCN2C(=O)[C@H](CC(=O)O)NC(=O)[C@H](CC(=O)O)NC(=O)[C@H](CC(N)=O)NC(=O)[C@H](CC(C)C)NC(=O)[C@H](C)NC(=O)[C@H](C)NC1=O [Compound C302] | low-background binding |  | 
CC[C@H](C)[C@@H]1NC(=O)[C@H](Cc2ccccc2)NC(=O)[C@H](C)NC(=O)[C@H](CCCCNC)NC(=O)[C@H]([C@@H](C)CC)NC(=O)[C@H](CCC(N)=O)NC(=O)[C@H](C)NC(=O)[C@H](Cc2ccc(O)cc2)NC(=O)[C@H]([C@@H](C)O)NC(=O)[C@H](CC(C)C)NC(=O)[C@@H]2CSSC[C@@H](C(=O)N[C@@H](CO)C(N)=O)NC(=O)[C@H](CC(C)C)NC(=O)[C@H](CCC(=O)O)NC(=O)[C@H](CCCCNC)NC(=O)[C@H](C)NC(=O)[C@H](CCC(=O)O)NC(=O)[C@H](CO)NC(=O)[C@H](CC(C)C)NC(=O)[C@H]([C@@H](C)CC)NC(=O)[C@H](CCC(=O)O)NC(=O)[C@H](CO)NC(=O)[C@H](CO)NC(=O)[C@H](CCC(N)=O)NC(=O)[C@H](CSSC[C@H](NC(=O)CCOCCOCCOCCOCCNC(=O)CCCC[C@@H]3SC[C@@H]4NC(=O)N[C@@H]43)C(=O)N[C@@H](C)C(=O)N[C@@H](CCCC[N+](C)(C)C)C(=O)N[C@@H](CCC(=O)O)C(=O)N[C@@H](CCCCN)C(=O)N[C@@H]([C@@H](C)CC)C(=O)N[C@@H](C)C(=O)N[C@@H](C)C(=O)N[C@@H](CC(C)C)C(=O)N[C@@H](CO)C(=O)N[C@@H](CCC(=O)O)C(=O)N[C@@H]([C@@H](C)CC)C(=O)N[C@@H]([C@@H](C)CC)C(=O)N[C@@H](Cc3c[nH]c4ccccc34)C(=O)N[C@@H](CC(C)C)C(=O)N3CCC[C@H]3C(=O)N2)NC(=O)[C@@H]2CCCN2C(=O)[C@H](CC(=O)O)NC(=O)[C@H](CC(=O)O)NC(=O)[C@H](CC(N)=O)NC(=O)[C@H](CC(C)C)NC(=O)[C@H](C)NC(=O)[C@H](C)NC1=O [Compound C304] | low-background binding |  | 
CC[C@H](C)[C@@H]1NC(=O)[C@H](CCCCN)NC(=O)[C@H](CCC(=O)O)NC(=O)[C@H](CCCC[N+](C)(C)C)NC(=O)[C@H](C)NC(=O)[C@@H](NC(=O)CCOCCOCCOCCOCCNC(=O)CCCC[C@@H]2SC[C@@H]3NC(=O)N[C@@H]32)CSSC[C@@H]2NC(=O)[C@@H]3CCCN3C(=O)[C@H](CC(=O)O)NC(=O)[C@H](CC(=O)O)NC(=O)[C@H](CC(N)=O)NC(=O)[C@H](CC(C)C)NC(=O)[C@H](C)NC(=O)[C@H](CCCCNC)NC(=O)[C@H]([C@@H](C)CC)NC(=O)[C@H](Cc3ccccc3)NC(=O)[C@H](C)NC(=O)[C@H](CCCCNC)NC(=O)[C@H]([C@@H](C)CC)NC(=O)[C@H](CCC(N)=O)NC(=O)[C@H](C)NC(=O)[C@H](Cc3ccc(O)cc3)NC(=O)[C@H]([C@@H](C)O)NC(=O)[C@H](CC(C)C)NC(=O)[C@H](CSSC[C@@H](C(=O)N[C@@H](CO)C(N)=O)NC(=O)[C@H](CC(C)C)NC(=O)[C@H](CCC(=O)O)NC(=O)[C@H](CCCCNC)NC(=O)[C@H](C)NC(=O)[C@H](CCC(=O)O)NC(=O)[C@H](CO)NC(=O)[C@H](CC(C)C)NC(=O)[C@H]([C@@H](C)CC)NC(=O)[C@H](CCC(=O)O)NC(=O)[C@H](CO)NC(=O)[C@H](CO)NC(=O)[C@H](CCC(N)=O)NC2=O)NC(=O)[C@@H]2CCCN2C(=O)[C@H](CC(C)C)NC(=O)[C@H](Cc2c[nH]c3ccccc23)NC(=O)[C@H]([C@@H](C)CC)NC(=O)[C@H]([C@@H](C)CC)NC(=O)[C@H](CCC(=O)O)NC(=O)[C@H](CO)NC(=O)[C@H](CC(C)C)NC(=O)[C@H](C)NC(=O)[C@H](C)NC1=O [Compound C306] | low-background binding | >12 | >12
CC[C@H](C)[C@@H]1NC(=O)[C@H](Cc2ccccc2)NC(=O)[C@H](C)NC(=O)[C@H](CCCCNC)NC(=O)[C@H]([C@@H](C)CC)NC(=O)[C@H](CCC(N)=O)NC(=O)[C@H](C)NC(=O)[C@H](Cc2ccc(O)cc2)NC(=O)[C@H](CC(N)=O)NC(=O)[C@H](CC(C)C)NC(=O)[C@@H]2CSSC[C@@H](C(=O)N[C@@H](CO)C(N)=O)NC(=O)[C@H](CC(C)C)NC(=O)[C@H](CCC(=O)O)NC(=O)[C@H](CCCCNC)NC(=O)[C@H](C)NC(=O)[C@H](CCC(=O)O)NC(=O)[C@H](CO)NC(=O)[C@H](CC(C)C)NC(=O)[C@H]([C@@H](C)CC)NC(=O)[C@H](CCC(=O)O)NC(=O)[C@H](CO)NC(=O)[C@H](CO)NC(=O)[C@H](CCC(N)=O)NC(=O)[C@H](CSSC[C@H](NC(=O)CCOCCOCCOCCOCCNC(=O)CCCC[C@@H]3SC[C@@H]4NC(=O)N[C@@H]43)C(=O)N[C@@H](C)C(=O)N[C@@H](CCCC[N+](C)(C)C)C(=O)N[C@@H](CCC(=O)O)C(=O)N[C@@H](CCCCN)C(=O)N[C@@H]([C@@H](C)CC)C(=O)N[C@@H](C)C(=O)N[C@@H](C)C(=O)N[C@@H](CC(C)C)C(=O)N[C@@H](CO)C(=O)N[C@@H](CCC(=O)O)C(=O)N[C@@H]([C@@H](C)CC)C(=O)N[C@@H]([C@@H](C)CC)C(=O)N[C@@H](Cc3c[nH]c4ccccc34)C(=O)N[C@@H](CC(C)C)C(=O)N3CCC[C@H]3C(=O)N2)NC(=O)[C@@H]2CCCN2C(=O)[C@H](CC(=O)O)NC(=O)[C@H](CC(=O)O)NC(=O)[C@H](CC(N)=O)NC(=O)[C@H](CC(C)C)NC(=O)[C@H](C)NC(=O)[C@H](C)NC1=O [Compound C310] | low-background binding |  | 
CC[C@H](C)[C@@H]1NC(=O)[C@H](Cc2ccccc2)NC(=O)[C@H](C)NC(=O)[C@H](CCCCNC)NC(=O)[C@H]([C@@H](C)CC)NC(=O)[C@H](CCC(N)=O)NC(=O)[C@H](C)NC(=O)[C@H](Cc2ccc(O)cc2)NC(=O)[C@H]([C@@H](C)O)NC(=O)[C@H](CC(C)C)NC(=O)[C@@H]2CSSC[C@@H](C(=O)N[C@@H](CO)C(N)=O)NC(=O)[C@H](CC(C)C)NC(=O)[C@H](CCC(=O)O)NC(=O)[C@H](CCCCNC)NC(=O)[C@H](C)NC(=O)[C@H](CCC(=O)O)NC(=O)[C@H](CO)NC(=O)[C@H](CC(C)C)NC(=O)[C@H]([C@@H](C)CC)NC(=O)[C@H](CCC(=O)O)NC(=O)[C@H](CO)NC(=O)[C@H](CO)NC(=O)[C@H](CC(N)=O)NC(=O)[C@H](CSSC[C@H](NC(=O)CCOCCOCCOCCOCCNC(=O)CCCC[C@@H]3SC[C@@H]4NC(=O)N[C@@H]43)C(=O)N[C@@H](C)C(=O)N[C@@H](CCCC[N+](C)(C)C)C(=O)N[C@@H](CCC(=O)O)C(=O)N[C@@H](CCCCN)C(=O)N[C@@H]([C@@H](C)CC)C(=O)N[C@@H](C)C(=O)N[C@@H](C)C(=O)N[C@@H](CC(C)C)C(=O)N[C@@H](CO)C(=O)N[C@@H](CCC(=O)O)C(=O)N[C@@H]([C@@H](C)CC)C(=O)N[C@@H]([C@@H](C)CC)C(=O)N[C@@H](Cc3c[nH]c4ccccc34)C(=O)N[C@@H](CC(C)C)C(=O)N3CCC[C@H]3C(=O)N2)NC(=O)[C@@H]2CCCN2C(=O)[C@H](CC(=O)O)NC(=O)[C@H](CC(=O)O)NC(=O)[C@H](CC(N)=O)NC(=O)[C@H](CC(C)C)NC(=O)[C@H](C)NC(=O)[C@H](C)NC1=O [Compound C312] | low-background binding |  | 
C298 (CAXEKIAALSEIIWLPCLTYAQIXAFIAALNDDPCQSSEILSEAKELCS; Biotin-PEG4 N-term, methylated lysines, C-amide; SITE 3 trimethyllysine; SITE 24 dimethyllysine) [Compound C298] | low-background binding |  | 
